Laboratory results from patent US9919019B2, “Use of essential oil of oregano or of rosewood, or constituents thereof, in the cosmetic treatment of keratoses” (L'Oreal, priority 2010, dated 2018).

Tested on: A431 cells
Test: Annexin V/propidium iodide (AV/PI) apoptosis test in A431 cells
Format: cell-based, human
Settings: for death by targeted apoptosis of mutated cancer cells / cytotoxic efficacy compared with complex essential oils: 12 h; for death by targeted apoptosis of mutated cancer cells: A431 versus HEK001, concentrations equal to those present in the EO treatments (linalool 320 nL/mL, carvacrol 60 nL/mL, thymol 30 nL/mL); for cytotoxic efficacy compared with complex essential oils: equivalent dose; for apoptotic A431 cells: 12 h of treatment
Protocol: These three molecules were incubated for 12 h with non-mutated immortalized keratinocytes (HEK001) and mutated cancerous keratinocytes (A431). The percentage of cells in apoptosis was measured by the annexin V/propidium iodide test. The concentrations of the molecules used were equal to those present during the treatments with the essential oils. Example: the concentration of linalool used here represents the equivalent of 80% of linalool present in the essential oil of rosewood.
Thirty six hours before the treatment, the cells were distributed into a 96-well plate (5×10^5 cells/mL).
EO treatment solution: the essential oils were diluted to 1/10th a first time in 100% ethanol. Next, a second dilution was carried out in culture medium in order to obtain the desired concentrations.
The AV/PI test can be used to detect this event because of the affinity of the protein annexin V for phosphatidyl-serine. Propidium iodide, which targets DNA, can be used to distinguish early apoptotic cells from cells in late apoptosis and/or in necrosis.
After the desired treatment time, the medium was eliminated, the cells were harvested (by trypsinization), centrifuged and rinsed in 4 mL of PBS 1×. Tagging was carried out following the instructions of the manufacturer (Kit Vybrant, Molecular Probe). The cells were rapidly taken up in 100 μl of tagging buffer, to which 6 μl of annexin V and 3 μg/mL of propidium iodide per sample was added. The cells were then incubated for 30 min in the dark (at ambient temperature). Four hundred μL of tagging buffer was added before measuring the fluorescence of the annexin V (at 530 nm) and of the propidium iodide (at 610 nm).

Row | SMILES | death by targeted apoptosis of mutated cancer cells | cytotoxic efficacy compared with complex essential oils | apoptotic A431 cells (carvacrol 60 nL/mL) | apoptotic A431 cells (thymol 30 nL/mL)
1 | C=CC(C)(O)CCC=C(C)C (centres unmarked) [linalool] | qualitatively conserved | lower than with complex essential oils | – | –
2 | Cc1ccc(C(C)C)cc1O [carvacrol] | qualitatively conserved | lower than with complex essential oils | ~25% | –
3 | Cc1ccc(C(C)C)c(O)c1 [thymol] | qualitatively conserved | lower than with complex essential oils | – | approximately 15%
